Assay results reported in patent US12498375B2, “Water-soluble compound for detection of beta-amyloid” (KOREA ATOMIC ENERGY RESEARCH INSTITUTE, priority 2020, dated 2025).

Key:
Ab42 fibrils = target: T1, Ab42 fibrils (Homo sapiens, UniProt P05067); experiment: Measurement of maximum excitation and emission wavelengths (SpectraMax M2); assay type: physicochemical; conditions: 10 μM Ab42 fibrils, 5 μM compound, PBS buffer
T1 construct: 10 μM of Ab42 fibrils
Protocol: The maximum excitation and emission wavelengths λmax of the Compounds 1, 2, 4, and 5 according to the present invention were measured by SpectraMax M2 (molecular devices). 10 μM of Ab42 fibrils and 5 μM of each compound, produced by the aforementioned method, as final concentrations were used in a PBS buffer solution. In general, the excitation λmax is determined by scanning the fixed first emission, and the emission λmax is determined by scanning the excitation spectrum with the fixed λmax. The absorbance of each of the Compound 1, Compound 2, Compound 4, and Compound 5 synthesized above was measured, and the results thereof are shown in FIG. 2.

[1] = target: T2, beta-amyloid (Aβ42 aggregate) (Homo sapiens, UniProt P05067); experiment: Evaluation of activity (fluorescence) before and after binding to beta-amyloid; conditions: for Change in fluorescence intensity after binding to beta-amyloid: before vs after binding to Aβ42 aggregate; for Faβ/F0 (fluorescence reactivity to the Aβ peptide): before vs after binding to Aβ peptide
T2 construct: 10 μM of Ab42 fibrils
T2 sequence (P05067 672-713 limits assumed): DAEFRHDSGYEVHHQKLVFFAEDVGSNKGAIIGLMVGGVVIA
Protocol: Regarding each of the Compound 1, Compound 2, Compound 4, and Compound 5 synthesized above, the activity before and after binding to beta-amyloid was evaluated, and the results thereof are shown in FIG. 3. […] Moreover, the absorption wavelengths of each of the Compound 1, Compound 2, Compound 4, and Compound 5 before and after binding to beta-amyloid are shown in Table 2 below. […] In particular, regarding the fluorescence reactivity to the Aβ peptide, the Faβ/F0 values of the Compounds 1, 2, 4, and 5 were 4.3, 11.6, 3.1, and 9.6, respectively, indicating high fluorescence properties (see Table 2 below). Furthermore, from FIG. 3, it was confirmed that there was a clear difference in the emission wavelength before and after the compound according to the present invention bound to the amyloid plaque.

[2] = Retina-targeting experiment in laboratory mouse (IVIS spectrum CT imaging); assay type: in vivo; conditions: 8 mg/kg tail vein, 3-month-old nude mouse
Protocol: A water-soluble Compound 1 (8 mg/kg) was injected into the tail vein of a 3-month-old nude mouse, and imaging was carried out with an IVIS spectrum CT system device, and the results thereof are shown in FIG. 4.

T1 sequence (P05067 672-713 limits assumed): as above

| SMILES | λem (Ab42 fibrils) [nm] | λex (Ab42 fibrils) [nm] | Change in fluorescence intensity after binding to beta-amyloid [1] [fold] | Faβ/F0 (fluorescence reactivity to the Aβ peptide) [1] | fluorescence signal in the eye of mouse ([2]; 1 minute after intravenous injection) | fluorescence signal in the eye of mouse ([2]; 10 minutes after intravenous injection) |
| --- | --- | --- | --- | --- | --- | --- |
| CN(C)c1ccc(/C=C/C2=[N+](CCCCS(=O)(=O)[O-])c3ccc4ccccc4c3C2(C)C)cc1 [Compound 1] | 620 | 560 | 4.3 | 4.3 | strong fluorescence signal | weak fluorescence signal |
| CNc1ccc(-c2ccc(/C=C/C3=[N+](CCCCS(=O)(=O)[O-])c4ccc5ccccc5c4C3(C)C)s2)cc1 [Compound 5, (E)-4-(1,1-dimethyl-2-(2-(5-(4-(methylamino)phenyl)thiophen-2-yl)vinyl)-1H-benzo[e]indol-3-ium-3-yl)butane-1-sulfonate] | 760 | 575 | 9.6 | 9.6 | – | – |
| CN(C)c1ccc(-c2ccc(/C=C/C3=[N+](CCCCS(=O)(=O)[O-])c4ccc5ccccc5c4C3(C)C)s2)cc1 [Compound 2, (E)-4-(2-(2-(5-(4-(dimethylamino)phenyl)thiophen-2-yl)vinyl)-1,1-dimethyl-1H-benzo[e]indol-3-ium-3-yl)butane-1-sulfonate] | 765 | 805 | 11.6 | 11.6 | – | – |
| CC1(C)C(/C=C/c2ccc(N3CCNCC3)cc2)=[N+](CCCCS(=O)(=O)[O-])c2ccc3ccccc3c21 [Compound 4, (E)-4-(1,1-dimethyl-2-(4-(piperazin-1-yl)styryl)-1H-benzo[e]indol-3-ium-3-yl)butane-1-sulfonate] | 620 | 570 | 3.1 | 3.1 | – | – |
